Results on 15 molecules are retold here after patent US20150051202A1, “TRIAZOLOPYRAZINE DERIVATIVES” (Merck Patent GmbH, priority 2012, published 2015).

One test addresses T1, SYK (Homo sapiens, UniProt P43405).
T1 construct: purchased BPS Bioscience, CA, USA
Briefly: SYK enzyme assay (Flash plate assay / Caliper mobility shift assay). It is filed as biochemical. The conditions noted are these: for SYK (enzyme assay) % at 3 μM: 100% corresponds to zero effect, −50% corresponds to IC50. How it is done:
The kinase assay is performed either as 384-well Flashplate assay (for e.g. Topcount measurement) or as 384-well Image-Flashplate assay (for LEADseeker measurement).
2.5 nM SYK, 400 nM Biotin-Aha-Aha-[…]
and 10 μM ATP (spiked with 0.3 μCi 33P-ATP/well) are incubated in a total volume of 50 μl (60 mM Hepes, 10 mM MgCl2, 1.2 mM Dithiothreitol, 0.02% Brij35, 0.1% BSA, pH 7.5) with or without test compound for 1 hours at 30° C. The reaction is stopped with 25 μl 200 mM EDTA. After 30 Min at 30° C. the liquid is removed and each well washed thrice with 100 μl 0.9% sodium chloride solution. Non-specific reaction is determined in presence of 0.1 μM Staurosporine. Radioactivity is measured with Topcount (when using Flashplates) or with LEADseeker (when using Image-Flashplates) respectively. Results (e.g. IC50-values) are calculated with program tools provided by the IT-department (e.g. Symyx Assay Explorer, Genedata Screener).
Enzymatic Assays Using the Caliper LifeSciences Technology
The assays described here are performed on the Caliper Life Sciences LC3000 system This technology provides data on enzyme activity via measurement of the relative amounts of phosphorylated or unphosphorylated fluorescently labelled substrate peptide at the end of an enzymatic reaction.
These different states of peptide are resolved by applying a potential difference across the sample. The presence of the charged phosphate group on the product (as opposed to the substrate) causes a different peptide mobility between the two peptides. This is visualized by excitation of the fluorescent label on the substrate and product peptides and represented as peaks within the analysis software.
In order to measure inhibitor activity of kinase inhibitors on this technology, a TTP Mosquito liquid handling instrument is used to place 0.25 ul of the appropriate concentration of inhibitor in 100% DMSO (for a dose response curve calculation) into each well of a 384-well plate. To this reaction components are added to a final volume of 25 ul. The table below indicates the sequences and concentrations for the assays described in this report. Standard components are 1 mM DTT (Sigma, D0632), 1 mM MgCl2 (Sigma, M1028), 100 mM HEPES pH 7.5 (Calbiochem, 391338), 0.015% Brij-35 (Sigma, B4184).
The reaction is incubated for 90 min at 25 C, and then stopped by the addition of 70 ul of Stop buffer (100 mM HEPES pH 7.5, 0.015% Brij-35, 10 mM EDTA (Sigma, E7889)).
The plate is read on a Caliper LC 3000 in an Off-Chip mobility shift assay format, on a 12-sipper chip. Unphosphorylated substrate and phosphorylated product peptide resolve as separate peaks allowing direct measurement of percentage of conversion of substrate to product. The percent conversion can be plotted against concentration of inhibitor to produce a sigmoidal dose response curve, from which an IC50 can be calculated using GeneData Condoseo or a similar product.

In another test the target is GCN2 (Homo sapiens, UniProt Q9P2K8). Briefly: GCN2 enzyme assay (TR-FRET Lanthascreen, GFP-eIF2alpha substrate). Type of test: biochemical. From the text: GCN2: Assay Principle & Conditions
This assay can quantificate the activity of the serin kinase GCN2 (general control non-derepressible-2).
This kinase is involved in the stress metabolism of cells. It is activated upon starvation (amino acid depletion). Its natural substrate is eIF2a (eukaryotic initiation factor 2 alpha subunit), a translation factor, which gets activated (phosphorylated) by GCN2 in case of an amino acid bottleneck in the cells. This in turn leads to a halt of the protein synthesis. Inhibition of GCN2 results in stopping this mechanism: The cell can not stop protein production upon “starvation” stress.
The assay is run in two steps: the enzymatic reaction and the detection step. In the first step GCN2 is incubated with 10 μM ATP and 80 nM of the GFP-labelled substrate eIF2alpha at room temperature.
The enzymatic reaction is stopped by addition of EDTA. The amount of phosphorylated eIF2alpha is determined by TR-FRET (Lanthascreen): A complex is formed consisting of antibody and GFP labelled phospho-eIF2a, which allows a FRET upon exitation at 340 nm.
Final Concentrations in the Enzymatic Reaction • Hepes, pH 7.0 50 mM • MgCl2 10 mM • MnCl2 5 mM • BSA 0.1% • DMSO 1% • ATP 10 uM • DTT 2 mM • GFP-eIF2a 80 nM (substrate) • GCN2 30 nM (enzyme)

pIC50: −log10 of the molar value.

Sequence of GCN2 (Q9P2K8 whole entry): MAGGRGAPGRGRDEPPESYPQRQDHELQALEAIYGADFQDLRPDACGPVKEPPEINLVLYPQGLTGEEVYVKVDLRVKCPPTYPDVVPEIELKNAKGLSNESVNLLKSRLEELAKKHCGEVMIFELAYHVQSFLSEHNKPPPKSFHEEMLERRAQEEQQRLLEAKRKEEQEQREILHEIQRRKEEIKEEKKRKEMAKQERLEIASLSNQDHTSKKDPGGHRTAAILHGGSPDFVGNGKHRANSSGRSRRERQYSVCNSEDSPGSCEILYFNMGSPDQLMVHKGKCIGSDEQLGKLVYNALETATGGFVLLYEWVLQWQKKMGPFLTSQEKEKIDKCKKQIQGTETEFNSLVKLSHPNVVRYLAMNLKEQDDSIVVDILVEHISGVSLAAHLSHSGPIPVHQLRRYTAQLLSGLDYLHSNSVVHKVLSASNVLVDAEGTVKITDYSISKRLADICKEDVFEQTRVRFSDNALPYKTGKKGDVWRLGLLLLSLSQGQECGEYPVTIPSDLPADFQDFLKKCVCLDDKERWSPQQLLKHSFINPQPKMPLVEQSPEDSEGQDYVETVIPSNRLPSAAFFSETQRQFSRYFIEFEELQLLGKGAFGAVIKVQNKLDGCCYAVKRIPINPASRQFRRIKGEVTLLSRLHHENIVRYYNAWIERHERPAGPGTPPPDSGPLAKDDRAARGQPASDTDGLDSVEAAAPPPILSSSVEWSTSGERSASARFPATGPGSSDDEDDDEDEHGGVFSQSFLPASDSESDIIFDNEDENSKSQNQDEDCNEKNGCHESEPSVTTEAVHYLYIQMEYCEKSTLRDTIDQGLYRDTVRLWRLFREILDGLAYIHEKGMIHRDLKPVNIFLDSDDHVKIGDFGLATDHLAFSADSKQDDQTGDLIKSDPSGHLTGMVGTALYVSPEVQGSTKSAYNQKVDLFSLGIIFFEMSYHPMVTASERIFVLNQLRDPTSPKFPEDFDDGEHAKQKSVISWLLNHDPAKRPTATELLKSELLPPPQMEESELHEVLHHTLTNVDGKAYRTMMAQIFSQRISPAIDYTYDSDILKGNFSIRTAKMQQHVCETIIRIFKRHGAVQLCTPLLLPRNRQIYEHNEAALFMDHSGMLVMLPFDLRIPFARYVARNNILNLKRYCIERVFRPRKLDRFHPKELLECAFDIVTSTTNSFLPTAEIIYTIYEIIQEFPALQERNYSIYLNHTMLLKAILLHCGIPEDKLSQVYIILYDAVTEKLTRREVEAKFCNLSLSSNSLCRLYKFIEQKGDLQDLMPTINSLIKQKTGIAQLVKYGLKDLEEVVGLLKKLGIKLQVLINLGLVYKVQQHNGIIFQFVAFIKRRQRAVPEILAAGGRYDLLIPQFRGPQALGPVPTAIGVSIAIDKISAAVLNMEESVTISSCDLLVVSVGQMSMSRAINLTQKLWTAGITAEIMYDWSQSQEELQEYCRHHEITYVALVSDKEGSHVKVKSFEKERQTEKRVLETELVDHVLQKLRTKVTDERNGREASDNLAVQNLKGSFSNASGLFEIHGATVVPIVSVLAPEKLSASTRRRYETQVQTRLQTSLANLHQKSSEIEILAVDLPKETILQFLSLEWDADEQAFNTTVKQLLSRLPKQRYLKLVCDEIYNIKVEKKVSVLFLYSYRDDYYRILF

As a reminder, the pIC50 is −log10 of the IC50, conventionally taken in molar units. `CN(C)Cc1nc2cc(Nc3nc4cncc(-c5cnc6ccccc6c5)n4n3)ccc2[nH]1` [Compound A10, (2-dimethylaminomethyl-1H-benzoimidazol-5-yl)-(5-quinolin-3-yl-[1,2,4]triazolo[1,5-a]pyrazin-2-yl)-amine]: the values for the pIC50 on SYK and against GCN2 were 5.30 to 6.00 and above 6.00, respectively.

Regarding `Cn1cc(-c2cncc3nc(Nc4ccc(S(C)(=O)=O)cc4)nn23)cn1` [Compound A11, (4-methanesulfonyl-phenyl)-[5-(1-methyl-1H-pyrazol-4-yl)-[1,2,4]triazolo[1,5-a]pyrazin-2-yl]-amine], the pIC50 at SYK and at GCN2 was 5.30 to 6.00 in each case.

For `Cn1cc(-c2cncc3nc(Nc4ccc5c(c4)NC(=O)C5(C)C)nn23)cn1` [Compound A13, 3,3-dimethyl-6-[5-(1-methyl-1H-pyrazol-4-yl)-[1,2,4]triazolo[1,5-a]pyrazin-2-ylamino]-1,3-dihydro-indol-2-one], the pIC50 at SYK and at GCN2 was above 6.00 each time.

`CN(C)Cc1nc2cc(Nc3nc4cncc(-c5cnn(C)c5)n4n3)ccc2[nH]1` [Compound A14]: the pIC50 on SYK is 5.30 to 6.00; against GCN2 it was above 6.00.

For the molecule `O=C1Cc2cc(Nc3nc4cncc(-c5ccc(N6CCOCC6)cc5)n4n3)ccc2N1` [Compound A15, 5-[5-(4-morpholin-4-yl-phenyl)-[1,2,4]triazolo[1,5-a]pyrazin-2-ylamino]-1,3-dihydro-indol-2-one], the figures for the pIC50 at SYK and against GCN2 were 5.30 to 6.00 and above 6.00, respectively.

On to `c1cncc(Nc2nc3cncc(-c4ccc(N5CCOCC5)cc4)n3n2)c1` [Compound A16, [5-(4-morpholin-4-yl-phenyl)-[1,2,4]triazolo[1,5-a]pyrazin-2-yl]-pyridin-3-yl-amine], for which, on SYK, the “SYK (enzyme assay) % at 3 μM” value is listed as 1.5@3%. At GCN2, this molecule showed a pIC50 above 6.00.

As to `Cc1cc(Nc2nc3cncc(-c4ccc(N5CCOCC5)cc4)n3n2)ccc1N1CCN(C)CC1` [Compound A17, [3-methyl-4-(4-methyl-piperazin-1-yl)-phenyl]-[5-(4-morpholin-4-yl-phenyl)-[1,2,4]triazolo[1,5-a]pyrazin-2-yl]-amine], the negative logarithm of the IC50 (pIC50) on SYK was 5.30 to 6.00; on GCN2, above 6.00.

With `Clc1cn2nc(Nc3cccnc3)nc2cn1` [Compound A20], the “SYK (enzyme assay) % at 3 μM” value on SYK is given as 1@3%. Also, the negative-log IC50 (pIC50) on GCN2 is 5.30 to 6.00.

As for `COc1cccc(Nc2nc3cnc(Br)cn3n2)c1` [Compound A22], the “SYK (enzyme assay) % at 3 μM” value at SYK was −15@3%. This molecule also had a pIC50 on GCN2 above 6.00.

Regarding `c1cncc(Nc2nc3cnc(-c4cccnc4)cn3n2)c1` [Compound A25, pyridin-3-yl-(6-pyridin-3-yl-[1,2,4]triazolo[1,5-a]pyrazin-2-yl]-amine], the “SYK (enzyme assay) % at 3 μM” value on SYK is −8@3%. The same molecule had a pIC50 at GCN2 of 5.30 to 6.00.

In the case of `Fc1ccc(-c2cncc3nc(Nc4cccnc4)nn23)cc1` [Compound A27, [5-(4-fluoro-phenyl)-[1,2,4]triazolo[1,5-a]pyrazin-2-yl]-pyridin-3-yl-amine], the “SYK (enzyme assay) % at 3 μM” value on SYK is −6@3%. For the same molecule, at GCN2, the pIC50 is 5.30 to 6.00.

For the molecule `COc1cccc(Nc2nc3cncc(-c4ccccc4)n3n2)c1` [Compound A28], on SYK, the “SYK (enzyme assay) % at 3 μM” value is −2@3%. The molecule also had a negative-log IC50 (pIC50) on GCN2 above 6.00.

Regarding `COc1cccc(Nc2nc3cncc(-c4cnn(C)c4)n3n2)c1` [Compound A30], on SYK, the “SYK (enzyme assay) % at 3 μM” value is reported as −33@3%. On GCN2, this molecule showed a pIC50 above 6.00.

On to `c1cc(N2CCOCC2)ccc1Nc1nc2cncc(-c3cn[nH]c3)n2n1` [Compound A31, (4-morpholin-4-yl-phenyl)-[5-(1H-pyrazol-4-yl)-[1,2,4]triazolo[1,5-a]pyrazin-2-yl]-amine], for which the values for the pIC50 on SYK and at GCN2 were above 6.00 and 5.30 to 6.00, respectively.

For the molecule `c1ccc2ncc(-c3cncc4nc(Nc5ccc(N6CCOCC6)cc5)nn34)cc2c1` [Compound A32, (4-morpholin-4-yl-phenyl)-(5-quinolin-3-yl-[1,2,4]triazolo[1,5-a]pyrazin-2-yl)-amine], at SYK, the “SYK (enzyme assay) % at 3 μM” value is on record as −35@3%. Moreover, on GCN2, the pIC50 was 5.30 to 6.00.
